Key:
VEGFR2 = target: T1, VEGFR2 (Homo sapiens, UniProt P35968); test: Tyrosine kinase profiling (Alphascreen), VEGFR2; type: biochemical; details: ATP concentration = Km
T1 construct: The cytoplasmic domain of vascular endothelial growth factor receptor 2 (VEGFR2); purchased Millipore Corp
Method: (§1) The cytoplasmic domain of vascular endothelial growth factor receptor 2 (VEGFR2), platelet-derived growth factor receptor α (PDGFRα), cSRC were purchased from Millipore Corp. Assays for 3 tyrosine kinases were performed in 384 well plates using the Alphascreen® system (PerkinElmer) at room temperature. Enzyme reactions were performed in 50 mM Tris–HCl, pH7.5, 5 mM MnCl2, 5 mM MgCl2, 0.01% Tween-20, 2 mM dithiothreitol and 0.1 μg/ml biotinylated poly-GluTyr (4:1) containing optimized concentration of enzyme and ATP as described below.
Prior to the kinase reaction, compound and enzyme were incubated for 5 min at room temperature. The reactions were initiated by adding ATP. After the reaction period as described below at room temperature, the reactions were stopped by the addition of 25 μl of 100 mM EDTA, 10 μg/ml Alphascreen streptavidin donor beads and 10 μg/ml acceptor beads described below in 62.5 mM HEPES, pH 7.4, 250 mM NaCl, and 0.1% BSA. Plates were incubated in the dark for more than 12 h and then read by EnVision 2102 Multilabel Reader (PerkinElmer). The well containing substrate and enzyme without compound was used as total reaction control. […]

[1] = system: several key kinases close to EGFR/HER2; test: Kinase selectivity profile; type: biochemical; details: versus EGFR/HER2
Method: (§2) Assays for 4 serine/threonine kinases using radio labeled [γ-^32P] ATP (GE Healthcare, Piscataway, NJ) were performed in 96 well plates. Mitogen-activated protein kinase p38α (p38α), was expressed as N-terminal FLAG-tagged protein using a baculovirus expression system. Aurora-A and -B were expressed as N-terminal 6xHis tagged protein using a baculovirus expression system. CDK2/CycA was expressed as C-terminal 6His-tagged CDK2, and N-terminal GST-tagged Cyclin A protein using a baculovirus expression system.
as §1

MDA-MB-453 cells = test: Antiproliferation WST-1 assay, MDA-MB-453; type: cell-based; details: Homo sapiens, breast cancer, HER-2++, PTEN deficiency
Method: (§3) WST-1 is better than MTT for analyzing cell proliferation, because it can be reduced to soluble formazan by dehydrogenase in mitochondria and has little toxicity to cells. Cell proliferation was determined using WST-1 dye (Beyotime Inst Biotech, China) according to manufacture’s instructions. Brieﬂy, 5 × 10^3 cells per well were seeded in a 96-well plate, grown at 37 ℃ for 24 h, and then placed in serum-starved conditions for a further 6 h. Subsequently, cells were treated with compounds (Table 1) at increasing concentrations in the presence of 10% FBS for 24 or 48h. After 10 µL WST-1 dye was added to each well, cells were incubated at 37 ℃ for 2 h and the absorbance was ﬁnally determined at 450 nm using a microplate reader.

human HER2 = target: T2, human HER2 (Homo sapiens, UniProt P04626); test: HER2 kinase assay ([γ-32P] ATP, poly-Glu-Tyr); type: biochemical; details: phosphorylation of poly-Glu-Tyr copolymer; mean, >1 determination; read-out: Enzyme activity IC50 against HER2 kinase
T2 construct: The cytoplasmic domain (amino acids 676-1255) of human HER2; FLAG (DYKDDDD) (N); made in house
T2 sequence (P04626 676-1255): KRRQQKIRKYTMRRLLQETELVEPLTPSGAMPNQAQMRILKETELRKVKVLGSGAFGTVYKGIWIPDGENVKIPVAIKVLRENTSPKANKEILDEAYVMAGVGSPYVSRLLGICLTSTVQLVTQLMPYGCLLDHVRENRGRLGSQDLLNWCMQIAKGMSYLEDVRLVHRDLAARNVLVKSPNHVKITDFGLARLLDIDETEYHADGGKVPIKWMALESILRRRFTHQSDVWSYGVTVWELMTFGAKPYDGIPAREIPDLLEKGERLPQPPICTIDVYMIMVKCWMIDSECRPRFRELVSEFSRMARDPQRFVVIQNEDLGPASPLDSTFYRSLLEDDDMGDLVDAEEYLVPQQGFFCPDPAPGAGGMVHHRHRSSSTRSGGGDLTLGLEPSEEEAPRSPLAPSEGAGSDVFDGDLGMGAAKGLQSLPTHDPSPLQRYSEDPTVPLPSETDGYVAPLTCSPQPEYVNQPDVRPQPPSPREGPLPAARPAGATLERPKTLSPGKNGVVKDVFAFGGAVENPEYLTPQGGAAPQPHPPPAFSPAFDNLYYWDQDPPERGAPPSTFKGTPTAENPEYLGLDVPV
Method: The expressed HER2 kinase and EGFR kinase were purified by anti-FLAG M2 affinity gel (Sigma-Aldrich, USA). The HER2 and EGFR kinase assays were performed using radiolabeled [γ-^32P] ATP (GEHealthcare, USA) in 96-well plates. The kinase reactions were performed in 50 mmol/L Tris-HCl, pH7.5, 5 mmol/L MnCl2, 0.01% Tween-20 and 2 mmol/L DTT containing 0.9 μCi of [γ-^32P] ATP per reaction, 50 μmol/L ATP, 5 μg/mL poly-Glu-Tyr (4:1) and 0.25 μg/mL of purified Her2 or EGFR cytoplasmic domain in a total volume of 50 μL. […] Kinase reactions were initiated by adding ATP. After the kinase reaction incubated for 10 minutes at room temperature, reactions were terminated by the addition of 10% (final concentration) trichloroacetic acid. The [γ-^32P]-phosphorylated proteins were filtered in a harvest plate (Millipore, USA) with a cell harvester (PerkinElmer, USA) and washed free of [γ-^32P] ATP with 3% phosphoric acid. The plates were dried, followed by the addition of 25 μL of MicroScintO (PerkinElmer, USA). Radioactivity was counted by a Topcount scintillation counter (PerkinElmer, USA).

MCF-7 cells = test: Antiproliferation WST-1 assay, MCF-7; type: cell-based, human; details: Homo sapiens, MCF7, WST-1 assay; MCF-7 breast cancer, Her2/neu overexpression; read-out: Cellular IC50, MCF-7
Method: as §3

A431 cells = test: Antiproliferation WST-1 assay, A431; type: cell-based, human; details: Homo sapiens, A-431, WST-1 assay; A431, overexpression of EGFR; read-out: Cellular IC50, A431
Method: as §3

p38α = target: T3, p38α (Homo sapiens, UniProt Q16539); test: Serine/threonine kinase profiling ([γ-32P] ATP), p38α; type: biochemical
T3 construct: FLAG (N); made in house; host or cells: baculovirus expression system
T3 sequence (Q16539 whole entry): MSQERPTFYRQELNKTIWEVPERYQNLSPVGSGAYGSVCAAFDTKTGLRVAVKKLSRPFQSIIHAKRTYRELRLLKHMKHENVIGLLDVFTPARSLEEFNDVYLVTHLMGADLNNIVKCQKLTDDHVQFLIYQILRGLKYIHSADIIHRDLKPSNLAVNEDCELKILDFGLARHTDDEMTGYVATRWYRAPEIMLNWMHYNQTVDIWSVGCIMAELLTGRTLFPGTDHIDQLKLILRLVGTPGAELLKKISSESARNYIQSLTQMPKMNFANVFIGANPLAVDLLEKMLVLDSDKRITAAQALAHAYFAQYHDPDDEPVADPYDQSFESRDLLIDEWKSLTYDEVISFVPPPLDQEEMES
Method: as §2
The reaction conditions were optimized for each kinase: p38α (100 ng/well of enzyme, 1 μg/well of MBP (Wako Pure Chemical Ind., Osaka, Japan), 0.1 μCi/well of [γ-^32P] ATP, 60 min reaction at 30 ℃); Aurora-A and -B (50 ng/well of enzyme, 30 μM of Aurora substrate peptide, 0.2 μCi/well of [γ-^32P] ATP, 60 min reaction at room temperature); CDK2/CycA (1.8 mUnits/well of enzyme, 1 μg/well of Histone H1 (Calbiochem), 0.2 μCi/well of [γ-^32P] ATP, 20 min reaction at room temperature).
All the four enzyme reactions were performed in 25 mM HEPES, pH 7.5, 10 mM magnesium acetate, 1 mM dithiothreitol and 0.5 μM ATP containing optimized concentration of enzyme, substrate and radiolabeled ATP as described above in a total volume of 50 μl. […] The radioactivity was counted by a TopCount scintillation counter (PerkinElmer).

T1 sequence (P35968 786-1356 limits assumed, species assumed): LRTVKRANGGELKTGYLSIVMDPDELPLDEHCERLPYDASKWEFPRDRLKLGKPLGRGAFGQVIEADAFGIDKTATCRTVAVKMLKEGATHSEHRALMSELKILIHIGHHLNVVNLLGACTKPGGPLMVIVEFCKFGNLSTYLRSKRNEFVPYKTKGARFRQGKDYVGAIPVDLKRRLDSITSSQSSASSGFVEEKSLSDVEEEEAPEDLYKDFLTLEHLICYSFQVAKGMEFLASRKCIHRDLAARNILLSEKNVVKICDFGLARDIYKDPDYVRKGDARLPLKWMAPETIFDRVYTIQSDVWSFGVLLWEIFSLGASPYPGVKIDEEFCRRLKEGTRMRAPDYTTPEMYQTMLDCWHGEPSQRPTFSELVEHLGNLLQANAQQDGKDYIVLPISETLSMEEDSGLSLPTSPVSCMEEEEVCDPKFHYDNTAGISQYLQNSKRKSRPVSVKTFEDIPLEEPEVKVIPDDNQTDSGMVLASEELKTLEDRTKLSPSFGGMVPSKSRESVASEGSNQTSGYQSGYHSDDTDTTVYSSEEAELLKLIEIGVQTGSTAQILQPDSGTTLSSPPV

`O=C(Nc1ccc2ncnc(Nc3cccc(Br)c3)c2c1)c1ccc(C(F)(F)F)cc1O` [Compound 21, N-(4-(3-bromophenylamino)quinazolin-6-yl)-2-hydroxy-4-(trifluoromethyl)benzamide] was tested, and the IC50 (VEGFR2) was 29200 ± 980 nM, the “selectivity against major of other kinases screened” value [1] was “more than 100 fold” and the IC50 (MDA-MB-453 cells) was 920 ± 19 nM. It also gave an IC50 (human HER2) of 96 ± 4 nM, an IC50 (MCF-7 cells) of 490 ± 18 nM and an IC50 (A431 cells) of 670 ± 2 nM. The IC50 (p38α; ATP concentration = Km) was 16100 ± 370 nM and the “pIC50 p38α” value (p38α; converted from IC50 by online calculator) was 4.79.
